These are literature values, as cited in patent US20070254070A1, “Encapsulating Plant Extracts Adsorbed and/or Absorbed in Precipitated Silica” (AXISS FRANCE S.A.S., priority 2004, published 2007).

This data set relates to bacteria.

The structures appear in SMILES notation.

For the compound `Cc1ccc(C(C)C)cc1O` [carvacrol], the action on bacteria entry is “bactericidal”.
